Calls of active or inactive are those of the source. The calls are words filed in the database; no cut-off is given here.
How the values were obtained:
Influenza A virus [1] = assay: microbe, parasite or virus in culture; conditions: A/Puerto Rico/8/1934(H1N1), A549
[2] = system: Influenza A virus (A/Thailand/Kan353/2004(H5N1)); assay: Inhibition of Influenza A virus (A/Thailand/Kan353/2004(H5N1)) neuraminidase N1 using fluorogenic 2'-(4-Methylumbelliferyl)-alpha-D-N-acetylneuraminic acid sodium salt hydrate as substrate measured after 30 mins by microplate reader analysis
[3] = Cytotoxicity against human A549 cells assessed as reduction in cell viability by MTT assay; type: cell-based
Influenza A virus [4] = assay: Inhibition of hemagglutinin 5 in Influenza A virus assessed as inhibition of chicken erythrocytes aggregation
H5N1 subtype [5] = assay: Antiviral activity against Influenza A virus (A/Thailand/Kan353/2004(H5N1)) infected in MDCK cells assessed as inhibition of viral entry; type: functional, organism-based
H5N1 subtype [6] = type: functional, organism-based; conditions: 5 uM
Influenza A virus [7] = type: functional, organism-based; conditions: H5N1
MDCK = assay: Cytotoxicity against MDCK cells assessed as cell viability; type: cell-based, Canis lupus familiaris; conditions: dog
Hemagglutinin = Hemagglutinin (Influenza A virus, UniProt B4URE7); assay: Binding affinity to hemagglutinin by SPR assay
[8] = Binding affinity to HA2 subunit by SPR assay; design: species or system Influenza A virus
[9] = system: Vesicular stomatitis virus; assay: Antiviral activity against VSV-G enveloped pseudovirus infected in MDCK cells assessed as inhibition of viral entry; type: functional, organism-based

Hemagglutinin, sequence (B4URE7 whole entry): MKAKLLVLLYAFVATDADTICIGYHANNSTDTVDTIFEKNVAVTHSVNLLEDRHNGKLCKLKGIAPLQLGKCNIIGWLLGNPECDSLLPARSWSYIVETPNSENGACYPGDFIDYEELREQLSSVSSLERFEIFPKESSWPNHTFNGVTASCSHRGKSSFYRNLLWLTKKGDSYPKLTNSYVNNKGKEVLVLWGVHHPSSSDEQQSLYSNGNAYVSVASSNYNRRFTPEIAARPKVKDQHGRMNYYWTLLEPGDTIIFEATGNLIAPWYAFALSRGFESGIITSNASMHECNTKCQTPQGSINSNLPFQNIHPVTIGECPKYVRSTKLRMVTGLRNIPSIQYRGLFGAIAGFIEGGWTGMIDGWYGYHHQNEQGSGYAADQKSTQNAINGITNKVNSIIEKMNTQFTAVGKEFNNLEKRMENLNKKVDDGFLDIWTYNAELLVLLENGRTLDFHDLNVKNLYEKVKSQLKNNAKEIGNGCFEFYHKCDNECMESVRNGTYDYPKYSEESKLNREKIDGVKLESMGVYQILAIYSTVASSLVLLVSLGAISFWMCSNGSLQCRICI

Compound | IC50 (Influenza A virus [1]) [µM] | inhibition [2] | CC50 [3] [µM] | inhibition (Influenza A virus [4]) | IC50 (H5N1 subtype [5]) [µM] | inhibition (H5N1 subtype [6]) | inhibition (Influenza A virus [7]) | Activity (MDCK) | Kd (Hemagglutinin) [µM] | Kd [8] [µM] | inhibition [9]
C[C@H]1[C@H](C)CC[C@]2(C(=O)NCCN3CCCCC3)CC[C@]3(C)C(=CC[C@@H]4[C@@]5(C)CC[C@H](O[C@@H]6O[C@H](CO)[C@@H](O[C@@H]7O[C@@H](C)[C@H](O)[C@@H](O)[C@H]7O)[C@H](O)[C@H]6O[C@@H]6O[C@@H](C)[C@H](O)[C@@H](O)[C@H]6O)C(C)(C)[C@@H]5CC[C@]43C)[C@H]12 | 21.3 | inactive | > 200 | – | – | – | – | – | – | – | –
C[C@H]1[C@H](C)CC[C@]2(C(=O)NCCN3CCOCC3)CC[C@]3(C)C(=CC[C@@H]4[C@@]5(C)CC[C@H](O[C@@H]6O[C@H](CO)[C@@H](O[C@@H]7O[C@@H](C)[C@H](O)[C@@H](O)[C@H]7O)[C@H](O)[C@H]6O[C@@H]6O[C@@H](C)[C@H](O)[C@@H](O)[C@H]6O)C(C)(C)[C@@H]5CC[C@]43C)[C@H]12 | 18.2 | inactive | > 200 | inactive | 3.88 | Active | Dose-dependent effect | Non-Toxic | 0.0161 | 0.00017 | inactive
CCOC(=O)C1=C[C@@H](OC(CC)CC)[C@H](NC(C)=O)[C@@H](N)C1 [OSELTAMIVIR] | 4.61 | – | > 200 | – | – | – | – | – | – | – | –
C[C@H]1[C@H](C)CC[C@]2(C(=O)O)CC[C@]3(C)C(=CC[C@@H]4[C@@]5(C)CC[C@H](O[C@@H]6O[C@H](CO)[C@@H](O[C@@H]7O[C@@H](C)[C@H](O)[C@@H](O)[C@H]7O)[C@H](O)[C@H]6O[C@@H]6O[C@@H](C)[C@H](O)[C@@H](O)[C@H]6O)C(C)(C)[C@@H]5CC[C@]43C)[C@H]12 | 38.1 | – | 66.6 | – | – | – | – | – | – | – | –
